CC(=O)Oc1ccccc1C(=O)O
Details | solubility (mole fraction)
in MIBK, 277.46 K | 0.0196
in MIBK, 281.76 K | 0.023
in MIBK, 287.96 K | 0.0283
in MIBK, 292.96 K | 0.0331
in MIBK, 300.18 K | 0.0414
in MIBK, 307.27 K | 0.0511
in MIBK, 312.47 K | 0.0594
in MIBK, 318.36 K | 0.07
in MIBK, 327.95 K | 0.0897
in ethyl acetate, 275.86 K | 0.0154
in ethyl acetate, 283.66 K | 0.0204
in ethyl acetate, 289.86 K | 0.0254
in ethyl acetate, 296.16 K | 0.0313
in ethyl acetate, 302.67 K | 0.0384
in ethyl acetate, 308.68 K | 0.0467
in ethyl acetate, 315.16 K | 0.0564
in ethyl acetate, 321.37 K | 0.0676
in ethyl acetate, 327.91 K | 0.0807
in isobutanol, 276.36 K | 0.0098
in isobutanol, 284.46 K | 0.0151
in isobutanol, 289.27 K | 0.0194
in isobutanol, 294.3 K | 0.0247
in isobutanol, 299.16 K | 0.0309
in isobutanol, 303.65 K | 0.0383
in isobutanol, 308.26 K | 0.0469
in isobutanol, 312.61 K | 0.0567
in isobutanol, 316.87 K | 0.0679
in isobutanol, 320.96 K | 0.0807
in isobutanol, 322.96 K | 0.0875
in isobutanol, 326.57 K | 0.1
in isobutyl acetate, 277.86 K | 0.0109
in isobutyl acetate, 281.16 K | 0.0124
in isobutyl acetate, 287.78 K | 0.0157
in isobutyl acetate, 293.97 K | 0.0198
in isobutyl acetate, 300.25 K | 0.0247
in isobutyl acetate, 307.15 K | 0.0306
in isobutyl acetate, 313.56 K | 0.0376
in isobutyl acetate, 320.16 K | 0.046
in isobutyl acetate, 327.15 K | 0.0559
in n-butanol, 277.66 K | 0.0145
in n-butanol, 282.35 K | 0.0183
in n-butanol, 287.35 K | 0.0232
in n-butanol, 292.35 K | 0.0291
in n-butanol, 297.37 K | 0.036
in n-butanol, 301.66 K | 0.044
in n-butanol, 306.16 K | 0.0531
in n-butanol, 310.35 K | 0.0635
in n-butanol, 314.64 K | 0.0752
in n-butanol, 318.75 K | 0.0883
in n-butanol, 323.44 K | 0.103
in n-propanol, 276.36 K | 0.0164
in n-propanol, 282.96 K | 0.0227
in n-propanol, 288.16 K | 0.0286
in n-propanol, 293.16 K | 0.0354
in n-propanol, 297.85 K | 0.0434
in n-propanol, 302.55 K | 0.0527
in n-propanol, 307.06 K | 0.0632
in n-propanol, 311.66 K | 0.0752
in n-propanol, 316.06 K | 0.0887
in n-propanol, 320.45 K | 0.104
in n-propanol, 324.75 K | 0.121

O=C(O)c1ccccc1
Details | solubility (mole fraction)
in 2-butanone, 278.65 K | 0.131
in 2-butanone, 284.29 K | 0.148
in 2-butanone, 289.86 K | 0.166
in 2-butanone, 295.54 K | 0.186
in 2-butanone, 301.27 K | 0.206
in 2-butanone, 307.1 K | 0.229
in 2-butanone, 313.04 K | 0.254
in 2-butanone, 319.06 K | 0.281
in 2-butanone, 325.2 K | 0.311
in MIBK, 276.45 K | 0.11
in MIBK, 281.66 K | 0.124
in MIBK, 287.16 K | 0.139
in MIBK, 292.73 K | 0.156
in MIBK, 298.25 K | 0.175
in MIBK, 303.76 K | 0.195
in MIBK, 309.36 K | 0.217
in MIBK, 315.05 K | 0.242
in MIBK, 320.74 K | 0.264
in MIBK, 325.16 K | 0.281
in ethyl acetate, 279.67 K | 0.105
in ethyl acetate, 285.24 K | 0.121
in ethyl acetate, 289.24 K | 0.133
in ethyl acetate, 293.36 K | 0.146
in ethyl acetate, 298.93 K | 0.167
in ethyl acetate, 303.76 K | 0.186
in ethyl acetate, 308.76 K | 0.206
in ethyl acetate, 313.66 K | 0.228
in ethyl acetate, 318.65 K | 0.252
in ethyl acetate, 323.56 K | 0.278
in ethyl acetate, 326.5 K | 0.306
in isopropyl acetate, 276.27 K | 0.0855
in isopropyl acetate, 283.74 K | 0.105
in isopropyl acetate, 288.69 K | 0.118
in isopropyl acetate, 293.67 K | 0.134
in isopropyl acetate, 298.34 K | 0.15
in isopropyl acetate, 303.36 K | 0.168
in isopropyl acetate, 308.33 K | 0.188
in isopropyl acetate, 313.25 K | 0.209
in isopropyl acetate, 318.25 K | 0.232
in isopropyl acetate, 324.02 K | 0.26
in methanol, 278 K | 0.111
in methanol, 285.5 K | 0.129
in methanol, 292.23 K | 0.145
in methanol, 298.99 K | 0.164
in methanol, 304.78 K | 0.18
in methanol, 312.56 K | 0.204
in methanol, 319.32 K | 0.227
in methanol, 323.49 K | 0.241
in n-butanol, 276.92 K | 0.116
in n-butanol, 281.92 K | 0.13
in n-butanol, 291.77 K | 0.16
in n-butanol, 296.56 K | 0.176
in n-butanol, 301.56 K | 0.194
in n-butanol, 311.66 K | 0.234
in n-butanol, 316.79 K | 0.256
in n-butanol, 321.9 K | 0.279
in n-butanol, 327.3 K | 0.306
in n-propanol, 279.06 K | 0.119
in n-propanol, 284.15 K | 0.133
in n-propanol, 289.26 K | 0.148
in n-propanol, 294.47 K | 0.164
in n-propanol, 299.65 K | 0.182
in n-propanol, 304.75 K | 0.2
in n-propanol, 310.06 K | 0.221
in n-propanol, 315.41 K | 0.242
in n-propanol, 320.77 K | 0.266
in n-propanol, 326.16 K | 0.291
